This passage reports Ki results from US8450313B2, “2,3-diaryl- or heteroaryl-substituted 1,1,1-trifluoro-2-hydroxypropyl compounds” (Hoffmann-La Roche Inc., priority 2009, dated 2013).

Molecules are shown by their SMILES.

This assay deals with T1, full length human recombinant glucocorticoid receptor (Homo sapiens, UniProt P04150).
T1 construct: It contains some partially purified full length human recombinant glucocorticoid receptor; purchased Panvera/Invitrogen PV4302
T1 sequence (P04150 1-777): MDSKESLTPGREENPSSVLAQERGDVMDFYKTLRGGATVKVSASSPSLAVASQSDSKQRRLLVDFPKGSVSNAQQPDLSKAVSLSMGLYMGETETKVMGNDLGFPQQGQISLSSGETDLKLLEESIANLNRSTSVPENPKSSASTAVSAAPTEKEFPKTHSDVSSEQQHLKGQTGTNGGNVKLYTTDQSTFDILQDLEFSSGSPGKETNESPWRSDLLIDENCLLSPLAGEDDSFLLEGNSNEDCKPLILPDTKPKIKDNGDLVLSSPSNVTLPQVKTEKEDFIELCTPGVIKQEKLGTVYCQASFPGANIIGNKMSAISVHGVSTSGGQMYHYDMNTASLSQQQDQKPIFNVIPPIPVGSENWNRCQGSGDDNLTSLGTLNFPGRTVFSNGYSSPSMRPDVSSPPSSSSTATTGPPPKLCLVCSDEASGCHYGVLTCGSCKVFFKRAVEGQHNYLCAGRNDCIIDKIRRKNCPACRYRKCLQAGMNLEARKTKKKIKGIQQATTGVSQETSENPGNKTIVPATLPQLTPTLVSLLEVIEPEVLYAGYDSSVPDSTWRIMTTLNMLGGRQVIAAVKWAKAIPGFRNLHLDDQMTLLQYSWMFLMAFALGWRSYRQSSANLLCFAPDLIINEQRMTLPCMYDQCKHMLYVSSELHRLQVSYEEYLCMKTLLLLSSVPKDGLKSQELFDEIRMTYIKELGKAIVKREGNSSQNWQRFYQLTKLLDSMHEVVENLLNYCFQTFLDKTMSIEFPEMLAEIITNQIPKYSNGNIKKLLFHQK
In words: Glucocorticoid Receptor Binding Assay (Glucocorticoid Receptor Competitor Assay far red kit, fluorescence polarization). As to conditions: competition with fluorescent GR ligand Fluormone GS Far Red, 3 hours at 22° C., pH 7.4; Ki calculated from IC50 by Cheng-Prusoff. An outline of the steps:
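Compounds in serial dilution (from intermediate 4.2% DMSO stock) displace Fluormone GS Far Red from full-length human recombinant GR with stabilizing peptide, pH 7.4, incubated 3 hours at 22° C dark. Polarized fluorescence (610–660 nm) gives IC50 via sigmoidal fit, converted to Ki by Cheng-Prusoff.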
Usually Ki stands for the dissociation constant of the complex between target and ligand, obtained from inhibition or displacement. As to `C[C@H](c1ccc(Oc2ccc(C(=O)O)c(Cl)c2)cc1Cl)[C@@](O)(c1ccc2c(c1)N(C)C(=O)CO2)C(F)(F)F` (racemic) [Example 59, 2-Chloro-4-{3-chloro-4-[3,3,3-trifluoro-2-hydroxy-1-methyl-2-(4-methyl-3-oxo-3,4-dihydro-2H-benzo[1,4]oxazin-6-yl)-propyl]-phenoxy}-benzoic acid], the inhibition constant Ki is 1 nM.

For the compound `C[C@H](c1ccc(-c2ccc(C(=O)O)cc2F)cc1Cl)[C@@](O)(c1ccc2oc(=O)n(C)c2c1)C(F)(F)F` (relative stereo) [Example 126, 3′-Chloro-2-fluoro-4′-[3,3,3-trifluoro-2-hydroxy-1-methyl-2-(3-methyl-2-oxo-2,3-dihydro-benzooxazol-5-yl)-propyl]-biphenyl-4-carboxylic acid], the inhibition constant Ki was 0.5 nM.

For `CCOC(=O)c1cc(-c2ccc([C@H](C)[C@](O)(c3ccc4c(c3)N(C)C(=O)CO4)C(F)(F)F)c(Cl)c2)ccc1Cl` (relative stereo) [Example 39, 4,3′-Dichloro-4′-[3,3,3-trifluoro-2-hydroxy-1-methyl-2-(4-methyl-3-oxo-3,4-dihydro-2H-benzo[1,4]oxazin-6-yl)-propyl]-biphenyl-3-carboxylic acid ethyl ester], the Ki was 0.7 nM.

As to `C[C@@H](c1cc(Oc2cccc(CC(=O)O)c2)ccc1Cl)[C@](O)(c1ccc2c(c1)N(C)C(=O)CO2)C(F)(F)F` (relative stereo) [Example 12, (3-{4-Chloro-3-[3,3,3-trifluoro-2-hydroxy-1-methyl-2-(4-methyl-3-oxo-3,4-dihydro-2H-benzo[1,4]oxazin-6-yl)-propyl]-phenoxy}-phenyl)-acetic acid], the Ki is 8 nM.

On to `COC(=O)c1ccc(-c2ccc([C@@H](C)[C@@](O)(c3cnc4c(c3)N(C)C(=O)CO4)C(F)(F)F)c(Cl)c2)cc1F` (stereo in doubt) [Example 51, 3′-Chloro-3-fluoro-4′-[3,3,3-trifluoro-2-hydroxy-1-methyl-2-(1-methyl-2-oxo-2,3-dihydro-1H-pyrido[2,3-b][1,4]oxazin-7-yl)-propyl]-biphenyl-4-carboxylic acid methyl ester], for which the inhibition constant (Ki) is 20.8 nM.

Turning to `C[C@@H](c1cc(-c2ccc(C(=O)O)cc2)ccc1Cl)[C@](O)(c1ccc2c(c1)N(C)C(=O)CO2)C(F)(F)F` (relative stereo) [Example 17, 4′-Chloro-3′-[3,3,3-trifluoro-2-hydroxy-1-methyl-2-(4-methyl-3-oxo-3,4-dihydro-2H-benzo[1,4]oxazin-6-yl)-propyl]-biphenyl-4-carboxylic acid], the Ki was 55.6 nM.

On to `COC(=O)c1ccc(-c2ccc([C@@H](C)[C@@](O)(c3ccc4oc(=O)n(C)c4c3)C(F)(F)F)c(Cl)c2)c(F)c1` (relative stereo) [Example 125, 3′-Chloro-2-fluoro-4′-[3,3,3-trifluoro-2-hydroxy-1-methyl-2-(3-methyl-2-oxo-2,3-dihydro-benzooxazol-5-yl)-propyl]-biphenyl-4-carboxylic acid methyl ester], for which the Ki is 1 nM.

Take `COC(=O)c1ccc(-c2ccc([C@@H](C)[C@@](O)(c3ccc4oc(=O)n(C)c4c3)C(F)(F)F)c(Cl)c2)nc1` (stereo in doubt) [Example 127, 6-{3-Chloro-4-[3,3,3-trifluoro-2-hydroxy-1-methyl-2-(3-methyl-2-oxo-2,3-dihydro-benzooxazol-5-yl)-propyl]-phenyl}-nicotinic acid methyl ester]: the Ki is 0.7 nM.

With `COc1ccc([C@@H](C)[C@@](O)(c2ccc3oc(=O)n(C)c3c2)C(F)(F)F)c(Cl)c1` (stereo in doubt) [Example 171, 5-[2-(2-Chloro-4-methoxy-phenyl)-1-hydroxy-1-trifluoromethyl-propyl]-3-methyl-3H-benzooxazol-2-one], the inhibition constant Ki was 0.4 nM.

With `C[C@@H](c1ccc(Oc2ccc(C(=O)O)c(Cl)c2)cc1Cl)[C@](O)(c1ccc2c(c1)n(C)c(=O)n2C)C(F)(F)F` (stereo in doubt) [Example 90, 2-Chloro-4-{3-chloro-4-[2-(1,3-dimethyl-2-oxo-2,3-dihydro-1H-benzoimidazol-5-yl)-3,3,3-trifluoro-2-hydroxy-1-methyl-propyl]-phenoxy}-benzoic acid], the inhibitory constant (Ki) is 0.4 nM.

Regarding `CCOC(=O)c1cccc(Oc2ccc(Cl)c([C@H](C)[C@](O)(c3ccc4c(c3)N(C)C(=O)CO4)C(F)(F)F)c2)c1` (relative stereo) [Example 5, 3-{4-Chloro-3-[3,3,3-trifluoro-2-hydroxy-1-methyl-2-(4-methyl-3-oxo-3,4-dihydro-2H-benzo[1,4]oxazin-6-yl)-propyl]-phenoxy}-benzoic acid ethyl ester], the Ki was 7.5 nM.

On to `CC(c1ccc(O)cc1Cl)C(O)(c1ccc2c(c1)n(C)c(=O)n2C)C(F)(F)F` (stereo not drawn) [Example 85, 5-[2-(2-Chloro-4-hydroxy-phenyl)-1-hydroxy-1-trifluoromethyl-propyl]-1,3-dimethyl-1,3-dihydro-benzoimidazol-2-one], for which the Ki is 0.8 nM.

`C=CCN1C(=O)COc2ccc([C@](O)([C@H](C)c3ccc(-c4ccc(C(=O)OC)c(F)c4)cc3Cl)C(F)(F)F)cc21` (stereo in doubt) [Example 70, 4′-[2-(4-Allyl-3-oxo-3,4-dihydro-2H-benzo[1,4]oxazin-6-yl)-3,3,3-trifluoro-2-hydroxy-1-methyl-propyl]-3′-chloro-3-fluoro-biphenyl-4-carboxylic acid methyl ester]: the inhibition constant (Ki) was 278 nM.

For `C[C@H](c1ccc(Oc2c(C(=O)O)ccnc2Cl)cc1Cl)[C@@](O)(c1ccc2c(c1)n(C)c(=O)n2C)C(F)(F)F` (stereo in doubt) [Example 113, 2-Chloro-3-{3-chloro-4-[2-(1,3-dimethyl-2-oxo-2,3-dihydro-1H-benzoimidazol-5-yl)-3,3,3-trifluoro-2-hydroxy-1-methyl-propyl]-phenoxy}-isonicotinic acid], the inhibition constant Ki is 6.2 nM.

Turning to `Cc1cc([C@@](O)([C@@H](C)c2ccc(Oc3ccc(C(=O)O)c(F)c3)cc2Cl)C(F)(F)F)cc(C)c1C#N` (stereo in doubt) [Example 142, 4-{3-Chloro-4-[2-(4-cyano-3,5-dimethyl-phenyl)-3,3,3-trifluoro-2-hydroxy-1-methyl-propyl]-phenoxy}-2-fluoro-benzoic acid], the Ki was 2.1 nM.

For the compound `C[C@H](c1ccc(-c2ccc(C(=O)O)c(F)c2)cc1Cl)[C@@](O)(c1cccc2c1OCC(=O)N2C)C(F)(F)F` (stereo in doubt) [Example 54, 3′-Chloro-3-fluoro-4′-[3,3,3-trifluoro-2-hydroxy-1-methyl-2-(4-methyl-3-oxo-3,4-dihydro-2H-benzo[1,4]oxazin-8-yl)-propyl]-biphenyl-4-carboxylic acid], the inhibitory constant (Ki) is 281 nM.

Turning to `C[C@H](c1ccc(Br)cc1C(F)(F)F)[C@@](O)(c1ccc2oc(=O)n(C)c2c1)C(F)(F)F` (relative stereo) [Example 193, 5-[2-(4-Bromo-2-trifluoromethyl-phenyl)-1-hydroxy-1-trifluoromethyl-propyl]-3-methyl-3H-benzooxazol-2-one], the Ki is 0.9 nM.

On to `C[C@@H](c1ccc(-c2cccc(C(=O)O)c2)cc1Cl)[C@](O)(c1ccc2c(c1)N(C)C(=O)CO2)C(F)(F)F` (stereo in doubt) [Example 23, 3′-Chloro-4′-[3,3,3-trifluoro-2-hydroxy-1-methyl-2-(4-methyl-3-oxo-3,4-dihydro-2H-benzo[1,4]oxazin-6-yl)-propyl]-biphenyl-3-carboxylic acid], for which the Ki was 1.3 nM.

As to `C[C@@H](c1ccc(-c2ccc(C(=O)O)c(F)c2)cc1Cl)[C@](O)(c1ccc2c(c1)N(C)S(=O)(=O)N2C)C(F)(F)F` (relative stereo) [Example 163, 3′-Chloro-4′-[2-(1,3-dimethyl-2,2-dioxo-2,3-dihydro-1H-2λ6-benzo[1,2,5]thiadiazol-5-yl)-3,3,3-trifluoro-2-hydroxy-1-methyl-propyl]-3-fluoro-biphenyl-4-carboxylic acid], the inhibition constant Ki was 35.1 nM.

Regarding `C[C@@H](c1ccc(Oc2ccc(CC(=O)O)cc2)cc1Cl)[C@](O)(c1ccc2c(c1)n(C)c(=O)n2C)C(F)(F)F` (stereo in doubt) [Example 89, (4-{3-Chloro-4-[2-(1,3-dimethyl-2-oxo-2,3-dihydro-1H-benzoimidazol-5-yl)-3,3,3-trifluoro-2-hydroxy-1-methyl-propyl]-phenoxy}-phenyl)-acetic acid], the Ki is 1.1 nM.

Consider `COC(=O)c1cnc(Oc2ccc([C@H](C)[C@](O)(c3ccc4c(c3)N(C)C(=O)CO4)C(F)(F)F)c(Cl)c2)c(Cl)c1` (single isomer, unassigned) [Example 222], for which the Ki was 1.6 nM.
